Experimental data from US9340580B2, “Peptide with multiple epitopes” (priority 2007, dated 2016).
Several values for one entry are separate records, joined by “and”; a condition that tells them apart may be missing. Identical values can stand only once. Where a SMILES comes first, the peptide text is derived from it.

Legend:
[1] = solubility pre-screen in an aqueous, acidic milieu; type: physicochemical
[2] = precipitation in the aqueous solution of the binding assay; type: physicochemical; conditions: aqueous solution of the MHC class II binding assay, read-out: Precipitation in assay: lowest concentration at which an insoluble white precipitate is seen
From the text: This is a characteristic of promiscuous HLA-DRB1* binders.

Q: Which Solubility test [1] does the source give for `CC[C@H](C)[C@H](NC(=O)[C@H](C)NC(=O)[C@H](C)NC(=O)[C@@H](NC(=O)[C@H](C)NC(=O)[C@H](CCC(=O)O)NC(=O)[C@H](CC(=O)O)NC(=O)[C@@H](NC(=O)[C@H](C)NC(=O)[C@@H](N)CCCCN)C(C)C)C(C)C)C(=O)N[C@@H](CCC(=O)O)C(=O)N[C@@H](CCCCN)C(=O)N[C@@H](CO)C(=O)O` [HDM28] (H-KAVDEAVAAIEKS-OH) here?
A: YES

Q: And the solubility [2]?
A: 1000 µM and 1300 µg/mL

Q: With `CC(C)C[C@H](NC(=O)[C@H](CCC(N)=O)NC(=O)[C@H](Cc1ccccc1)NC(=O)[C@@H]1CCCN1C(=O)[C@@H](N)CCCCN)C(=O)N[C@@H](CCC(=O)O)C(=O)N[C@@H](C)C(=O)N[C@H](C(=O)N[C@@H](Cc1ccccc1)C(=O)N[C@@H](CCC(=O)O)C(=O)N[C@@H](C)C(=O)N[C@@H](CC(N)=O)C(=O)N[C@@H](CCC(N)=O)C(=O)N[C@@H](CC(N)=O)C(=O)N[C@H](C(=O)O)[C@@H](C)O)C(C)C` [HDM21] (H-KPFQLEAVFEANQNT-OH; N-terminus and C-terminus assumed) as the molecule, how does the Solubility test [1] read?
A: YES

Q: What about the solubility [2] of the same molecule?
A: 200 µM and 300 µg/mL

Q: What does the source list for `CC[C@H](C)[C@H](NC(=O)[C@@H](NC(=O)[C@H](C)NC(=O)[C@@H](NC(=O)[C@H](C)NC(=O)[C@H](CO)NC(=O)[C@H](Cc1c[nH]cn1)NC(=O)[C@@H](NC(=O)[C@H](CCC(N)=O)NC(=O)[C@H](C)NC(=O)[C@H](CC(C)C)NC(=O)[C@H](C)NC(=O)[C@H](CCC(=O)O)NC(=O)[C@@H](N)CCCNC(=N)N)[C@@H](C)O)[C@@H](C)CC)C(C)C)C(=O)O` [HDM09A] (H-REALAQTHSAIAVI-OH; N-terminus and C-terminus assumed)?
A: Solubility test [1]: YES; solubility [2]: 1000 µM and 2900 µg/mL

Q: For `CC[C@H](C)[C@H](NC(=O)[C@H](C)NC(=O)[C@H](CS)NC(=O)[C@H](C)NC(=O)[C@H](CC(C)C)NC(=O)[C@@H](NC(=O)CNC(=O)[C@@H](N)CC(=O)O)C(C)C)C(=O)N[C@@H](C)C(=O)N[C@H](C(=O)N[C@@H](Cc1c[nH]cn1)C(=O)N[C@@H](C)C(=O)N[C@@H](CCCCN)C(=O)N[C@H](C(=O)N[C@@H](CCCNC(=N)N)C(=O)O)[C@@H](C)CC)[C@@H](C)O` [HDM26A] (H-DGVLACAIATHAKIR-OH; N-terminus and C-terminus assumed), which solubility [2] is on record?
A: 1000 µM and 1500 µg/mL

Q: With `CC(C)C[C@H](NC(=O)[C@H](CC(=O)O)NC(=O)[C@H](CC(C)C)NC(=O)[C@H](CO)NC(=O)[C@H](CCC(N)=O)NC(=O)[C@H](CC(N)=O)NC(=O)[C@@H](N)CCCNC(=N)N)C(=O)N[C@@H](C)C(=O)N[C@@H](CCC(=O)O)C(=O)N[C@@H](CCC(N)=O)C(=O)N[C@@H](CCC(=O)O)C(=O)N[C@@H](CC(C)C)C(=O)N[C@H](C(=O)N[C@@H](CC(=O)O)C(=O)N[C@@H](CS)C(=O)N[C@@H](C)C(=O)N[C@@H](CO)C(=O)N[C@@H](CCC(N)=O)C(=O)N[C@@H](Cc1c[nH]cn1)C(=O)O)C(C)C` [HDM03C] (H-RNQSLDLAEQELVDCASQH-OH; N-terminus and C-terminus assumed) as the molecule, how does the Solubility test [1] read?
A: YES

Q: Which solubility [2] does the source give for `CC[C@H](C)[C@H](N)C(=O)NCC(=O)N[C@H](C(=O)N[C@H](C(=O)N[C@@H](CC(=O)O)C(=O)N[C@@H](CC(C)C)C(=O)N[C@@H](CCCCN)C(=O)NCC(=O)N[C@@H](CCC(=O)O)C(=O)N[C@@H](CC(C)C)C(=O)N[C@@H](CC(=O)O)C(=O)N[C@@H](CCSC)C(=O)N[C@@H](CCCNC(=N)N)C(=O)N[C@@H](CC(N)=O)C(=O)O)[C@@H](C)CC)[C@@H](C)CC` [HDM31] (H-IGIIDLKGELDMRN-OH) here?
A: 1000 µM and 1800 µg/mL

Q: With `CC(C)C[C@H](NC(=O)[C@H](CC(=O)O)NC(=O)[C@H](CC(C)C)NC(=O)[C@H](CCC(=O)O)NC(=O)[C@H](CO)NC(=O)[C@@H]1CCCN1C(=O)[C@@H](NC(=O)[C@H](CC(N)=O)NC(=O)[C@@H](NC(=O)[C@H](CO)NC(=O)[C@@H](N)CC(N)=O)C(C)C)C(C)C)C(=O)N[C@@H](CCCNC(=N)N)C(=O)N[C@@H](CO)C(=O)N[C@@H](CC(C)C)C(=O)N[C@@H](CCCNC(=N)N)C(=O)N[C@H](C(=O)O)[C@@H](C)O` [HDM17] (H-NSVNVPSELDLRSLRT-OH) as the molecule, how does the Solubility test [1] read?
A: YES

Q: With `CSCC[C@H](NC(=O)[C@@H]1CCCN1C(=O)[C@H](CC(=O)O)NC(=O)[C@H](Cc1ccccc1)NC(=O)[C@@H](NC(=O)[C@@H](N)CCC(=O)O)[C@@H](C)O)C(=O)N[C@@H](CCCCN)C(=O)N[C@H](C(=O)N1CCC[C@H]1C(=O)N[C@@H](CC(=O)O)C(=O)N[C@@H](Cc1c[nH]cn1)C(=O)N[C@@H](CO)C(=O)N[C@@H](CC(=O)O)C(=O)O)C(C)C` [HDM29] (H-ETFDPMKVPDHSD-OH) as the molecule, how does the Solubility test [1] read?
A: YES

Q: For `CC[C@H](C)[C@H](NC(=O)[C@H](CC(N)=O)NC(=O)[C@@H](N)CCCNC(=N)N)C(=O)N[C@@H](CCC(N)=O)C(=O)N[C@H](C(=O)N[C@@H](CCCNC(=N)N)C(=O)NCC(=O)N[C@@H](CC(C)C)C(=O)N[C@@H](CCCCN)C(=O)N[C@@H](CCC(N)=O)C(=O)N[C@@H](CCSC)C(=O)N[C@@H](CCCCN)C(=O)N[C@@H](CCCNC(=N)N)C(=O)N[C@H](C(=O)NCC(=O)O)C(C)C)C(C)C` [HDM34] (H-RNIQVRGLKQMKRVG-OH; N-terminus and C-terminus assumed), which Solubility test [1] is on record?
A: YES

Q: With `CC[C@H](C)[C@H](NC(=O)[C@@H]1CCCN1C(=O)[C@@H](NC(=O)[C@@H](NC(=O)[C@@H](NC(=O)[C@@H](N)CCCNC(=N)N)[C@@H](C)O)C(C)C)[C@@H](C)O)C(=O)N[C@@H](CCCNC(=N)N)C(=O)N[C@@H](CCSC)C(=O)N[C@@H](CCC(N)=O)C(=O)NCC(=O)NCC(=O)N[C@@H](CS)C(=O)NCC(=O)O` [HDM02] (H-RTVTPIRMQGGCG-OH; N-terminus and C-terminus assumed) as the molecule, how does the Solubility test [1] read?
A: YES

Q: Which Solubility test [1] does the source give for `CC[C@H](C)[C@H](NC(=O)[C@H](CC(N)=O)NC(=O)[C@H](CCCNC(=N)N)NC(=O)[C@H](CCSC)NC(=O)[C@H](CC(=O)O)NC(=O)[C@@H](N)CC(C)C)C(=O)N[C@@H](CCC(N)=O)C(=O)N[C@H](C(=O)N[C@@H](CCCNC(=N)N)C(=O)NCC(=O)N[C@@H](CC(C)C)C(=O)N[C@@H](CCCCN)C(=O)N[C@@H](CCC(N)=O)C(=O)O)C(C)C` [HDM33] (H-LDMRNIQVRGLKQ-OH; N-terminus and C-terminus assumed) here?
A: YES

Q: With `CC[C@H](C)[C@H](NC(=O)[C@H](CCCCN)NC(=O)[C@H](CC(N)=O)NC(=O)[C@@H](NC(=O)[C@H](CC(N)=O)NC(=O)[C@@H]1CCCN1)C(C)C)C(=O)N[C@@H](CCCNC(=N)N)C(=O)N[C@@H](CCC(=O)O)C(=O)N[C@@H](C)C(=O)N[C@@H](CC(C)C)C(=O)N[C@@H](C)C(=O)N[C@@H](CCC(N)=O)C(=O)N[C@H](C(=O)O)[C@@H](C)O` [HDM07] (H-PNVNKIREALAQT-OH) as the molecule, how does the Solubility test [1] read?
A: YES

Q: For `CC[C@H](C)[C@H](NC(=O)[C@H](Cc1ccc(O)cc1)NC(=O)[C@@H](N)CCC(=O)O)C(=O)N[C@@H](CCC(N)=O)C(=O)N[C@@H](Cc1c[nH]cn1)C(=O)N[C@@H](CC(N)=O)C(=O)NCC(=O)N[C@H](C(=O)N[C@H](C(=O)N[C@@H](CCC(N)=O)C(=O)N[C@@H](CCC(=O)O)C(=O)N[C@@H](CO)C(=O)N[C@@H](Cc1ccc(O)cc1)C(=O)O)C(C)C)C(C)C` [HDM05] (H-EYIQHNGVVQESY-OH), which Solubility test [1] is on record?
A: YES

Q: For `CC(C)[C@H](NC(=O)CNC(=O)[C@H](CC(=O)O)NC(=O)[C@H](CCC(=O)O)NC(=O)[C@H](CO)NC(=O)[C@H](CCCCN)NC(=O)[C@@H](NC(=O)[C@H](CC(N)=O)NC(=O)[C@H](C)N)C(C)C)C(=O)N[C@H](C(=O)N[C@@H](CCCCN)C(=O)N[C@@H](C)C(=O)N[C@@H](Cc1c[nH]cn1)C(=O)O)C(C)C` [HDM37] (H-ANVKSEDGVVKAH-OH), which Solubility test [1] is on record?
A: YES
